# Measured values taken from article PMC12758333 (Autophagy, 2025).
# pKd: −log10 of the molar value.
# Molecular target: T1, HMGB1 (HMGB1-His) (Homo sapiens, UniProt P09429)
# T1 sequence (P09429 1-215): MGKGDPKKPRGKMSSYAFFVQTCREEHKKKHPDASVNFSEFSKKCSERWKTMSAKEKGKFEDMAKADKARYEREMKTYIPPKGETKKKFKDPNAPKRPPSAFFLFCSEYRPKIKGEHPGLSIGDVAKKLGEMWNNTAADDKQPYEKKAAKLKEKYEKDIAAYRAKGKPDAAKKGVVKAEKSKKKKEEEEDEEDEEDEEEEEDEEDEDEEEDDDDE
# Test: microscale thermophoresis
# Format: binding
smiles,measurement,value
CN1CCN(c2ccc(C(=O)Nc3n[nH]c4ccc(Cc5cc(F)cc(F)c5)cc34)c(NC3CCOCC3)c2)CC1 [entrectinib],pKd,4.18
